In US9115073B2, “1,3-diphenylpropane derivatives, preparations and uses thereof” (GENFIT, priority 2011, dated 2015):

Key:
APPPS1 mice = experiment: Alzheimer's disease model (APPPS1 mice): Morris-Water-Maze test; format: in vivo, mouse; conditions: 60 days, +/- standard deviation
db/db mice = experiment: Diabetes model (db/db mice): non-fasting glycemia and HbA1c; format: in vivo, mouse
Method: Diabetes Model (db/db Mice)
The male db/db mice (8 to 9 week-old) were purchased from CERJ JANVIER (Le Genest Saint Isle, France). Animal care and handling was performed according to the Declaration of Helsinki and was approved by the local ethics committees. The animals were kept under a 12 hour light/dark standard light cycle and had free access to water and food. Animals were fed standard rodent chow diet (A03 SAFE, Augy, France). Mice were randomly assigned into different treatment groups, weighed and dosed by oral gavage (10 ml/kg body weight) once daily in the morning, either with the vehicle or with the compound. The vehicle used was 0.1% Tween 80 (Polyoxyethylenesorbitan monooleate) and 1% carboxymethylcellulose in 98.9% distilled water. The entire treatment protocol took 37 days. Non-fasting glycemia was measured at 8 A.M. with the Smart Check blood glucose monitoring system, in mice that have had unrestricted access to food and water throughout the night. The blood concentration of the glycosylated hemoglobin A1c was determined using the Randox kit for Daytona automate (Randox, cat# HA 3830) according to the manufacturer's recommendations. The HbA1c result was calculated as a percentage of the total hemoglobin concentration.

hPPARgamma = biological target: T1, hPPARgamma (Homo sapiens, UniProt P37231); experiment: Gal4-hPPARgamma transactivation assay in COS-7 cells (luciferase); format: cell-based
T1 construct: Gal4-hPPARγ(LBD); Gal4 (fusion partner); expressed in transfected cells; host or cells: COS-7 (monkey kidney)
T1 sequence (P37231 238-503 limits assumed): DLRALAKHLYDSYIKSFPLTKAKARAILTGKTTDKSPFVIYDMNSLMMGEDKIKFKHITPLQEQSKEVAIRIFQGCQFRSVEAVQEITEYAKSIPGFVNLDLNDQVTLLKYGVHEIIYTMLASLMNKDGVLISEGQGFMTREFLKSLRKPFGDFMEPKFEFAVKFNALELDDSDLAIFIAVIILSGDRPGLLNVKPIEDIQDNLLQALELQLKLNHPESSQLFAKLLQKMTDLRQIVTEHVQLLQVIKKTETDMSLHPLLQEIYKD
Outline: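 COS-7 cells transiently co-transfected with Gal4-hPPAR chimeras and a Gal4(RE)_TkpGL3 luciferase reporter (1/50 ratio) were seeded at 20,000 cells/well for 4 h, then treated in 2% lipid-free synthetic serum medium (0.1% DMSO). EC50 and Hill slope came from fitted luciferase curves. Emax is relative to fenofibrate 100 μM (α), rosiglitazone 10 μM (γ) or GW501516 1 μM (δ).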

[1] = treated group, start of study period

EC50 (hPPARgamma; Gal4-hPPARγ(LBD) transactivation): 11 nM
Gal4-hPPARγ(LBD) TOP (% ref) (hPPARgamma; maximal relative activation vs reference, listed as cpd 14-1-2): 82 % ref
Compound: COC(c1ccc(OC(F)(F)F)cc1)C1CC1c1cc(C)c(OC(C)(C)C(=O)O)c(C)c1 (single isomer, unassigned) [Cpd 14-1-2, 2-(4-(2-(methoxy(4-(trifluoromethoxy)phenyl)methyl)cyclopropyl)-2,6-dimethylphenoxy)-2-methylpropanoic acid]
Morris-Water maze distance, mean reduction from untreated APPPS1 mice (APPPS1 mice; 1 mpk per day): 22.6 % +/− 21% (*)
Morris-Water maze latency, mean reduction from untreated APPPS1 mice (APPPS1 mice; 1 mpk per day): 45.6 % +/− 16 % (**)
Morris-Water maze distance, mean reduction from untreated APPPS1 mice (APPPS1 mice; 10 mpk per day): 31.1 % +/− 18 % (**)
Morris-Water maze latency, mean reduction from untreated APPPS1 mice (APPPS1 mice; 10 mpk per day): 39.9 % +/− 20 % (**)
Non-fasting glycemia (db/db mice; 3 mg per kg per day by gavage, day 30): 146 mg/dL
glycated hemoglobin (HbA1c) (db/db mice; 3 mg per kg per day by gavage, day 37): 4.12%
decrease of non-fasting glycemia during the study period (db/db mice; 3 mg per kg per day by gavage, start to day 30): 48%
change in HbA1c during the study period (db/db mice; 3 mg per kg per day by gavage, start to day 37): no significant change
non-fasting glycemia lower as compared to untreated controls (db/db mice; 3 mg per kg per day, day 30, t-test p-value <0.0001): 60%
HbA1c lower as compared to the diabetic controls (db/db mice; 3 mg per kg per day, day 37, t-test p-value <0.01): 28%
Non-fasting glycemia (db/db mice; [1]): 258 mg/dL
glycated hemoglobin (HbA1c) (db/db mice; [1]): 4.16%
